Experimental data reported in US20040242676A1, “Method of mitigating the adverse effects of IL-2” (priority 2003, published 2004).
pIC50: −log10 of the molar value. Where two headings read alike, the source gives them in different places.

Tests used:
[1] = Dissolution of LMP and HMP forms as a function of pH; assay type: physicochemical; details: for Dissolution (%): 10 mg in 100 mL water, 37° C., 15 mins; for AUC of dissolution over the range of pH: pH 1.2 to 7.5
Description: The LMP and HMP forms of the LBA of formula (I) were prepared in accordance with a process described in Examples 1 and 2, respectively. The pH of each of multiple 100 mL aliquots of distilled water was adjusted within the range of 1.2 to 7.5. Ten mg of either the LMP or HMP forms, finely ground with mortar and pestle, were placed into separate aliquots and then stirred at 37° C. for 15 mins. The dissolution characteristic of the LMP and HMP forms was measured at each pH and expressed as a percentage of the whole. Areas-under-the curve (AUCS) were calculated over the range of pH values tested. [Since the ordinate values are expressed as % dissolution and the abscissa values are expressed as pH units, then the units of AUC is expressed as the product of % dissolution times pH units or, alternatively, “%·log[[…]]” Results appear below in Table 2.

[2] = Pharmacokinetics of suspension and solution in the rat; assay type: in vivo; details: gavage, 100 mg/kg; for AUC: trapezoidal rule
Description: Adult male Munich-Wistar rats (250 g, Charles River Laboratories) received by gavage a suspension of either HMP or LMP LBA in polyethylene glycol 400 at 100 mg/kg or 100 mg/kg of an equal mass of the HMP and LMP forms in solution at pH 7.5. Non-compartmental pharmacokinetics were determined and appear below in Table 3.

Human subjects = assay: Effect of LMP LBA and HMP LBA on hepatotoxicity in humans (alanine aminotransferase); assay type: in vivo
Description: Human subjects between the ages of 18 and 70 received every 8 hours single capsules containing either the LMP LBA or the HMP LBA form. The drug is prepared as a fine powder and then mixed as drug/excipients at 20/80 wt %/wt % where excipients consist of equal weights of lactose and hydroxypropyl methylcellulose. The intention of dosing was to examine the effect of increasing doses of each LBA on safety and tolerability. Standard laboratory parameters were measured, including complete blood count, chemistry panel 20, urinary analysis, and electrocardiogram (ECG). Measurements of the laboratory tests were made daily except for the ECG which was measured at baseline, 1 week, and 1 week after cessation of dosing. There were no differences in the safety profiles with the exception of liver function testing.
Because the liver plays a central role in the metabolism of drugs, the effect a drug has on liver function is an important effect to consider. An indicator of an adverse effect that a drug may have on the liver is the peak change from baseline of alanine aminotransferase (ALT). […] A significant increase of ALT is generally an increase of more than 2.

LTB4 chemotaxis = assay: Inhibition of LTB4 chemotaxis; assay type: cell-based
From the text: (§1) A series of tests were run to determine the in vitro and in vivo pharmacology properties of the HMP LBA of this invention. A summary of the results of these tests appear below.
Inhibition of LTB4 chemotaxis

[3] = test system: human neutrophil adhesion to LTB4-stimulated umbilical vein endothelial cells; assay: Inhibition of human neutrophil adhesion to LTB4-stimulated umbilical vein endothelial cells; assay type: cell-based
From the text: as §1
Inhibition of human neutrophil adhesion to LTB4-stimulated umbilical vein endothelial cells

[4] = test system: LTB4-induced neutrophil granulation; assay: Inhibition of LTB4-induced neutrophil granulation; assay type: cell-based
From the text: as §1
Inhibition of LTB4-induced neutrophil granulation

LTB4 synthesis = assay: Inhibition of LTB4 synthesis; assay type: biochemical
From the text: as §1
Inhibition of LTB4 synthesis

[5] = test system: LTA4 conversion into LTB4; assay: Inhibition of LTA4 conversion into LTB4; assay type: biochemical
From the text: as §1
Inhibition of LTA4 conversion into LTB4

guinea pigs [6] = assay: Inhibition of LTB4 chemotaxis in guinea pigs; assay type: in vivo, guinea pig; details: Cavia porcellus, po; i.g.
From the text: as §1
Inhibition of LTB4 chemotaxis in guinea pigs

guinea pigs [7] = assay: Inhibition of 12 (R)-HETE in guinea pigs; assay type: in vivo, guinea pig; details: Cavia porcellus, po; i.g.
From the text: as §1
Inhibition of 12 (R)—HETE in guinea pigs

rats and guinea pig = assay: Inhibition of acetic acid colonic inflammation in rats and guinea pig; assay type: in vivo; details: po; i.g.
From the text: as §1
Inhibition of acetic acid colonic inflammation in rats and guinea pig

guinea pig ear = assay: Inhibition of calcium ionophore dermal inflammation in the guinea pig ear; details: in vivo
From the text: as §1
Inhibition of calcium ionophore dermal inflammation in the guinea pig ear

[8] = test system: patients with metastatic renal carcinoma; details: for number of doses of IL-2 that could be tolerated, as related to the dose of the LBA: FIG. 2, p<0.05; for number of doses of IL-2 that could be tolerated, as related to the plasma level of the LBA: FIG. 3, p<0.03
Description: PROLEUKIN® IL-2 is administered to the patient in accordance with the labeling instructions (in brief, 600,000 IU/kg every 8 hours as tolerated). […] Therefore, 16 doses of the LA compound would be given during this same five-day period. […] These two courses constitute one cycle of IL-2.
Accordingly, the number of doses of IL-2 that can be given constitutes the single best measure of the tolerability of IL-2. The response rate, as measured by tumor shrinkage or disappearance, is the measure of antitumor activity.
The scheduled dosing regimen of IL-2 was 3× daily for a total of 14 doses over 5 days, followed by 9 days without IL-2, and then a repeat of the initial 14 doses over 5 days. The dose of IL-2 was 600,000 IU/kg administered intravenously every 8 hours.

## CCCc1c(OCCCOc2ccc(C(C)=O)c(OC)c2CCC)ccc2c1OC(C(=O)O)CC2 (racemic) [LMP LBA, (±)-7-[3-(4-acetyl-3-methoxy-2-propylphenoxy)-propoxy]3,4-dihydro-8-propyl-2H-1-benzopyran-2-carboxylic acid]
[1]; pH 1.2
  Dissolution (%): 0%
[1]; listed as LMP
  AUC of dissolution over the range of pH: 284 %·pH units
[1]; pH 3.0
  Dissolution (%): 0%
[1]; pH 4.5
  Dissolution (%): 0%
[1]; pH 5.0, listed as LMP
  Dissolution (%): 20%
[1]; pH 5.5, listed as LMP
  Dissolution (%): 48%
[1]; pH 6.0, listed as LMP
  Dissolution (%): 82%
[1]; pH 6.5, listed as LMP
  Dissolution (%): 96%
[1]; pH 7.0, listed as LMP
  Dissolution (%): 99%
[1]; pH 7.5
  Dissolution (%): 100%
[2]; listed as LMP
  Tmax: 0.7 h
[2]; male, Munich-Wistar, blood, po, read-out: Cmax
  Cmax: 10400 ng/mL
[2]; male, Munich-Wistar, blood, po, read-out: AUC
  AUC: 57000 ng·h/mL
Human subjects; 150 mg daily for up to 14 consecutive days (total target dose 2100 mg)
  tolerability (hepatotoxicity): not well tolerated
Human subjects; 60 and 150 mg/day
  subjects withdrawn from dosing because of adverse changes in alanine aminotransferase levels: 6/6
Human subjects; daily dose 60 mg, cumulative 300 mg over 5 days
  Peak Change from Baseline Alanine Aminotransferase (multiple): 2.5 multiple
Human subjects; daily dose 150 mg, cumulative 750 mg over 5 days, listed as LMP
  Peak Change from Baseline Alanine Aminotransferase (multiple): 2.5 multiple

## CCCc1c(OCCCOc2ccc(C(C)=O)c(OC)c2CCC)ccc2c1OC(C(=O)O)CC2 (racemic) [HMP LBA, (±) 7-[3-(4-acetyl-3-methoxy-2-propylphenoxy)propoxy]-3,4-dihydro-8-propyl-2H-1-benzopyran-2-carboxylic acid]
[1]; listed as HMP
  AUC of dissolution over the range of pH: 163 %·pH units
[1]; pH 5.0, listed as HMP
  Dissolution (%): 6%
[1]; pH 5.5, listed as HMP
  Dissolution (%): 18%
[1]; pH 6.0, listed as HMP
  Dissolution (%): 29%
[1]; pH 6.5, listed as HMP
  Dissolution (%): 50%
[1]; pH 7.0, listed as HMP
  Dissolution (%): 81%
[2]; listed as HMP
  Cmax: 13000 ng/mL
  Tmax: 2.0 h
  AUC: 65000 ng·h/mL
Human subjects; daily dose 75 mg, cumulative 375 mg over 5 days
  Peak Change from Baseline Alanine Aminotransferase (multiple): 1 multiple
Human subjects; daily dose 100 mg, cumulative 500 mg over 5 days
  Peak Change from Baseline Alanine Aminotransferase (multiple): 1 multiple
Human subjects; daily dose 125 mg, cumulative 625 mg over 5 days
  Peak Change from Baseline Alanine Aminotransferase (multiple): 2 multiple
Human subjects; daily dose 150 mg, cumulative 750 mg over 5 days, listed as HMP
  Peak Change from Baseline Alanine Aminotransferase (multiple): 2 multiple
Human subjects; daily dose 175 mg, cumulative 875 mg over 5 days
  Peak Change from Baseline Alanine Aminotransferase (multiple): 2 multiple
Human subjects; daily dose 200 mg, cumulative 1000 mg over 5 days
  Peak Change from Baseline Alanine Aminotransferase (multiple): 1 multiple
Human subjects; daily dose 225 mg, cumulative 1125 mg over 5 days
  Peak Change from Baseline Alanine Aminotransferase (multiple): 0 multiple
Human subjects; daily dose 300 mg, cumulative 1500 mg over 5 days
  Peak Change from Baseline Alanine Aminotransferase (multiple): −.5 multiple
Human subjects; daily dose 450 mg, cumulative 2250 mg over 5 days
  Peak Change from Baseline Alanine Aminotransferase (multiple): 0 multiple
Human subjects; daily dose 600 mg, cumulative 3000 mg over 5 days
  Peak Change from Baseline Alanine Aminotransferase (multiple): 2 multiple
Human subjects; daily dose 750 mg, cumulative 3750 mg over 5 days
  Peak Change from Baseline Alanine Aminotransferase (multiple): 1 multiple
Human subjects; daily dose 900 mg, cumulative 4500 mg over 5 days
  Peak Change from Baseline Alanine Aminotransferase (multiple): 1 multiple
Human subjects; humans, 4500 mg over five days
  doses administered without excessive hepatotoxicity: up to 900 mg/day
Human subjects; intermittent dosing: 5 days, 9 days without exposure, 5 days, total exposure 9000 mg
  tolerability: improved even further
LTB4 chemotaxis
  Inhibition of LTB4 chemotaxis, range: 0.3 to 3.0 µM
[3]
  Inhibition of human neutrophil adhesion to LTB4-stimulated umbilical vein endothelial cells, range: 0.3 to 1.0 µM
[4]
  Inhibition of LTB4-induced neutrophil granulation, range: 1 to 3 µM
LTB4 synthesis
  pIC50: 5.68
[5]
  pIC50: 4.70
Guinea pigs [6]
  ED50: 0.6 mg/kg
Guinea pigs [7]
  ED50: 20 mg/kg
Rats and guinea pig
  ED50: 20 mg/kg
Guinea pig ear
  ED50, inhibition of calcium ionophore dermal inflammation in the guinea pig ear: 0.7 mg/ear
[8]; FIG. 4
  number of doses of IL-2 that could be tolerated, as related to the dose of the LBA: rose
[8]; FIG. 4, listed as LBA
  number of doses of IL-2 that could be tolerated, as related to the dose of the LBA: increases
[8]
  number of doses of IL-2 that could be tolerated, as related to the plasma level of the LBA: rose
[8]; listed as LBA
  number of doses of IL-2 that could be tolerated, as related to the plasma level of the LBA: increases
[8]; HMP LBA doses at or above 250 mg/day, 5/27
  frequency of serious IL-2 events: 19%
[8]; HMP LBA doses of <250 mg/day, 13 events in 35 patients
  frequency of serious IL-2 events: 38%
[8]; coadministration of HMP LBA, FIG. 4
  frequency of IL-2 induced serious adverse clinical events as total exposure to IL-2 increased: significantly declined
[8]; human, in vivo
  response rate to treatment with IL-2 under LBA treatment: not diminished
[8]; oral, 75-900 mg/day, co-administered with IL-2
  tolerability: well tolerated
[8]; oral, co-administered with IL-2, 62 subjects
  maximal tolerated dose: > 900 mg/day
[8]; p<0.02
  concentration in the plasma as a function of dose: rose linearly in a dose-proportional manner

## des-alanyl-1, serine-125 human interleukin-2 [IL-2]
[8]; patients with metastatic renal cell cancer, after a single course of treatment with IL-2
  objective response rate: 10-15%
